Measured values as given in patent US20030130121A1, “Novel bacterial isolate and the preparation and use of its active metabolites” (priority 1999, published 2003).
In brackets after ≈: the same amount, converted by molar mass. Entries after “also recorded” stand apart in the source; their conditions may differ. Read-outs that look alike come from different tables or passages of the source.

Assays:
[1] = tested on: S. sclerotiorum sclerotia; assay: Suppression of apothecial formation - microtiter plate assay 2; format: cell-based, Sclerotinia sclerotiorum; details: for inhibition of apothecial formation of sclerotia: S. sclerotiorum, qualitative; for MIC: Sclerotinia sclerotiorum
Method: Twenty four-well microtiter plates were used to test the effect of the purified metabolites on apothecial formation in a concentration range between 0.01 μg ml^−1 and 100 μg ml^−1. To obtain respective concentrations of tested metabolites, the appropriate volume out of the respective metabolite stock solutions of 100 μg ml^−1, 10 μg ml^−1 and 1 μg ml^−1, dissolved in acetonitrile, was distributed into the wells and the solvent was then evaporated. Thereupon, the metabolites were dissolved in sterile H2O and one, or in some tests two, preconditioned sclerotia were placed into each well. Tests were done in triplicate and controls were sclerotia placed in sterile water only.
(§1) The activity of haterumalide A, B and E, and of pyrrolnitrin to inhibit the spore germination of A. fumigatus, F. culmorum, F. oxysporum, H. annosum, M. canis, P. ultimum and S. sclerotiorum as well as the inhibition of the C. albicans growth was tested by using the microtiter plate assay 1 described in Example 7. The effect on apothecial formation of S. sclerotiorum sclerotia was assayed by using microtiter plate assay 2 described in Example 7.

S. sclerotiorum mycelium = assay: Suppression of S. sclerotiorum mycelial growth, susceptibility test discs on PDA; format: cell-based, Sclerotinia sclerotiorum; details: for inhibition of mycelial growth: S. sclerotiorum, qualitative
Method: For testing effects of haterumalide A, halves of surface sterilized and bisected sclerotia were placed in the center PDA plates (9 cm in diameter) to initiate mycelial growth of S. sclerotiorum. The metabolite, at a concentration from 0.05 to 5 μg ml^−1 diluted in MeOH/H2O (1:1), was then spotted directly onto sterile antimicrobial susceptibility test discs (Oxoid Ltd) located at four equidistant places, giving a total of 0.2 to 20 μg ml^−1 compound per one Petri plate. The treatments were performed in triplicate. Zones of inhibition of mycelial growth were measured after 4 days and reduction of mycelial growth was calculated as a percentage of MeOH/H2O controls.

[2] = tested on: S. sclerotiorum ascospores; assay: Suppression of spore germination - microtiter plate assay 1; format: cell-based, Sclerotinia sclerotiorum; details: for inhibition of ascospore germination: S. sclerotiorum, qualitative; for MIC: Sclerotinia sclerotiorum, read-out: Minimal Inhibitory Concentration (MIC) to totally inhibit spore germination
Method: (§2) To obtain the A. fumigatus conidiospores, the fungus was grown on ME slants for about 2 weeks at 28° C. The F. culmorum and F. oxysporum conidia, the H. annosum basidiospores, the M. canis macroconidia were produced by inoculating fungal plugs on Corn Meal Agar plates (CMA, Difco Ltd.), Hagem Agar plates (5 g glucose, 5 g ME, 0.5 g NH4NO3, 0.5 g KH2PO4, 0.5 g MgSO4×7H2O, 20 g Agar in 1000 ml deionized H2O) and Oat Meal Agar plates (60 g oat meal, 12.5 g Agar in 1000 ml deionized H2O), respectively, for a period of 5 to 10 days at 25° C. Ascospores of S. sclerotiorum were collected during their dispersal from apothecia by entrapping them on the surface of a water agar (12 g Bacto Agar (Difco Ltd)), 1000 ml H2O). Mature spores were then scraped off or washed out from the surface of the agar plates, with 0,5% Bacto Peptone (Difco Ltd) supplemented with 0.01% Tween 80. The P. ultimum sporangia were obtained by. growing the fungus on grass blades (Martin, 1992). The C. albicans stock culture of 1.0×10^6 cfu ml^−1 was prepared from a 24-hours old culture grown on Yeast Malt Agar plates (YM Agar, Difco Ltd) at 37° C. by suspending it in 0.5% Bacto Peptone and adjusting the optical density of this culture to an absorbance of 0.5 at 600 nm. The spore concentration was counted by using a Bürker chamber, and stock spore suspensions were stored at −70 ° C. for further use. The spore concentrations in respective stock suspensions, as well as the spore concentrations and media to culture fungi in a microtiter plate assay, are listed in Table 2 below.
(§3) To follow the activity during purification, HPLC-fractions to be tested were directly collected to 96-well microtiter plates by using a fraction collector (FC 204, Gilson), and mainly the activity to inhibit the germination of F. culmorum conidia and S. sclerotiorum ascospores was tested. […] The solvents were always evaporated, and one hundred μl of spore suspension, suspended in the appropriate media as listed in Table 2, were then distributed into each well. Depending on the fungus tested, the spore germination was monitored after 24 to 96 hours of incubation at 25° C. in darkness except for A. fumigatus and C. albicans which were incubated at 28 ° C. and 37 ° C. Controls were spores suspended in respective culturing media and culturing media only. All tests were done in triplicate and repeated at least twice.
as §1

P. ultimum sporangia = assay: as above; format: cell-based; details: Globisporangium ultimum, read-out: Minimal Inhibitory Concentration (MIC) to totally inhibit spore germination
Method: as §2, §3, §1

F. oxysporum conidia = assay: as above; format: cell-based; details: Fusarium oxysporum, read-out: Minimal Inhibitory Concentration (MIC) to totally inhibit spore germination
Method: as §2, §3, §1

[3] = tested on: A. fumigatus conidiospores; assay: as above; format: cell-based; details: Aspergillus fumigatus, read-out: Minimal Inhibitory Concentration (MIC) to totally inhibit spore germination
Method: as §2, §3, §1

H. annosum basidiospores = assay: as above; format: cell-based; details: Heterobasidion annosum, read-out: Minimal Inhibitory Concentration (MIC) to totally inhibit spore germination
Method: as §2, §3, §1

F. culmorum conidia = assay: as above; format: cell-based; details: Fusarium culmorum, read-out: Minimal Inhibitory Concentration (MIC) to totally inhibit spore germination
Method: as §2, §3, §1

M. canis macroconidia = assay: as above; format: cell-based, Microsporum canis var. canis; details: Microsporum canis, read-out: Minimal Inhibitory Concentration (MIC) to totally inhibit spore germination
Method: as §2, §3
as §1, with “The effect on apothecial formation of S. sclerotiorum sclerotia was assayed by using microtiter plate assay 2 described in Example 7.” left out

Lemna minor = assay: Differentiation and growth of Lemna minor, 24-well microtiter plates; format: in vivo; details: for Number of Lemna minor fronts (leaves) per one microtiter plate well, End of test: 10 fronts at beginning, control 36
Method: Twenty four-well microtiter plates were used to test the effect of the purified haterumalide B on differentiation and growth of Lemna minor in a concentration range between 1 μg ml^−1 and 60 μg ml^−1. To obtain respective concentrations of the tested metabolite, the appropriate volume out of the respective metabolite stock solutions of 100 μg ml^−1 and 10 μg ml^−1, dissolved in acetonitrile, was distributed into the wells, and the solvent was then evaporated. Thereupon, the metabolite was dissolved in a sterile Lemna medium and three Lemna minor plants with 10 fronts were placed into each well. Tests were done in duplicate and controls were Lemna minor plants placed in only Lemna medium.

[4] = tested on: green algae (Scenedesmus quadricauda); assay: Growth of green algae in Z8 medium; format: cell-based; details: concentrations similar to those used for the Lemna minor test; preliminary
Method: Additionally, the similar method was used to preliminary test the effect of haterumalide B on the growth of green algae (Scenedesmus quadricauda). Evaporated haterumalide B was dissolved in a sterile Z8 medium with the suspension of algae. Tests were performed in duplicate with suspensions of Scenedesmus quadricauda placed in only sterile Z8 medium as controls.

Stellaria media = assay: Foliar spraying of Stellaria media with A 153 culture preparations and haterumalide B; format: in vivo; details: Stellaria media 6-8 leaf stage; 4 ml/4 plants/pot; no concentration factor printed
[5] = tested on: S. sclerotiorum sclerotia; assay: Viability of recovered sclerotia; format: cell-based, Sclerotinia sclerotiorum
Method: The sclerotia were placed in 100 ml of deionized water for 10 minutes and subsequently. washed with running deionized water for 10 minutes. They were then transferred onto moistened filter paper in sealed Petri dishes and placed under light conditions suitable for induction of apothecial formation. […] These sclerotia were surface disinfected in 70% ethanol for 2 minutes, rinsed in sterile deionized water, bisected, transferred to PDA in Petri dishes, and observed for mycelial growth after 5 days.
All the preparations were prepared in such a way that their relative concentrations corresponded to those of the bacterial culture, i.e. 1.5×10^9 cfu ml^−1 (non-diluted), 0.75×10^9 cfu ml^−1 (diluted 1:1) and 0.375×10^9 cfu ml^−1 (diluted 1:3), and their apothecial suppressive activity was compared to the effect of such bacterial cultures tested simultaneously. Three Petri plates per treatment were used with sclerotia treated with deionized water, 50, 25 and 12, 5% strength TSB and 1, 0.5 and 0.25% methanol (MeOH) in deionized water, as controls. Inclusion of methanol controls reflected residual concentrations of methanol in the ethyl acetate extratct and aqueous phase. The suppression of apothecial formation after the treatment with various culture preparations was transformed to values of apothecia formed per one sclerotium as a percentage of water control. Sclerotia with suppressed apothecial formation were retrieved and their viability was tested as described above (Example 8).

[6] = tested on: three classes of fungi other than Oomycetes; details: Strobel et al. (1999); inhibition of mycelial growth; cited from earlier work
[7] = read-out: Minimal Inhibitory Concentration (MIC) to totally inhibit apothecial formation of sclerotia, S. sclerotiorum sclerotia

SMILES	inhibition of apothecial formation of sclerotia [1]	inhibition of mycelial growth (S. sclerotiorum mycelium)	inhibition of ascospore germination [2]	MIC (F. culmorum conidia)	MIC (P. ultimum sporangia)	MIC (F. oxysporum conidia)	MIC [3]	MIC (H. annosum basidiospores)	MIC [1, 7]	MIC (M. canis macroconidia)	MIC [2]	also measured
CC(=O)O[C@H]1CC(=O)OC2CC(CC/C(Cl)=C/C/C=C\1C)O[C@H]2[C@H]1C=C(C)CC(=O)O1 (some centres unmarked) [Haterumalide X]	ability to inhibit	ability to inhibit	ability to inhibit	–	–	–	–	–	–	–	–	–
O=[N+]([O-])c1c(Cl)cccc1-c1c[nH]cc1Cl [Pyrrolnitrin, pyrrolnitrin, reference compound]	–	–	–	0.06 µg/mL (≈ 0.233 µM)	–	–	–	–	–	–	–	MIC (P. ultimum sporangia; P. ultimum): < 50 µg/mL; MIC (F. oxysporum conidia; F. oxysporum): 20 µg/mL (≈ 77.8 µM); MIC ([3]; A. fumigatus): 3 µg/mL (≈ 11.7 µM); MIC (H. annosum basidiospores; H. annosum): 50 µg/mL (≈ 194 µM); MIC ([1]; S. sclerotiorum sclerotia, read-out: Minimal Inhibitory Concentration (MIC) to totally inhibit apothecial formation of sclerotia): < 100 µg/mL; MIC (M. canis macroconidia; M. canis): 1 µg/mL (≈ 3.89 µM); MIC ([2]; S. sclerotiorum ascospores): 10 µg/mL (≈ 38.9 µM)
C=C(COC(=O)C/C(C)=C/[C@@H](O)[C@@H]1OC2CC/C(Cl)=C/C/C=C(/C)[C@@H](OC(C)=O)CC(=O)OC1C2)C(C)=O (some centres unmarked) [Haterumalide B]	ability to inhibit	ability to inhibit	ability to inhibit	1 µg/mL (≈ 1.81 µM)	1 µg/mL (≈ 1.81 µM)	0.8 µg/mL (≈ 1.45 µM)	13 µg/mL (≈ 23.5 µM)	20 µg/mL (≈ 36.2 µM)	0.5 µg/mL (≈ 0.904 µM)	40 µg/mL (≈ 72.3 µM)	3 µg/mL (≈ 5.42 µM)	Number of Lemna minor fronts (leaves) per one microtiter plate well, End of test (Lemna minor; 1 μg ml-1): 10; Number of Lemna minor fronts (leaves) per one microtiter plate well, End of test (Lemna minor; 5 μg ml-1): 10; Number of Lemna minor fronts (leaves) per one microtiter plate well, End of test (Lemna minor; 10 μg ml-1): 10; Number of Lemna minor fronts (leaves) per one microtiter plate well, End of test (Lemna minor; 30 μg ml-1): 10; Number of Lemna minor fronts (leaves) per one microtiter plate well, End of test (Lemna minor; 60 μg ml-1): 10; Visible effects on Lemna fronts (Lemna minor; at all tested concentrations (1 to 60 μg ml-1)): fronts impaired and totally; also recorded: chlorotic; differentiation and growth of Lemna minor (Lemna minor; at all tested concentrations (1 to 60 μg ml^−1)): totally inhibited; growth of green algae [4]: inhibits the growth; Plants Surviving (Stellaria media): 0.0; Shot Fresh Weight (Stellaria media): 0.1 g
C/C1=C/C/C=C(\Cl)CCC2CC(OC(=O)C[C@@H]1O)[C@H]([C@H](O)/C=C(\C)CC(=O)O)O2 (some centres unmarked) [Haterumalide E]	ability to inhibit	ability to inhibit	ability to inhibit	5 µg/mL (≈ 11.7 µM)	8 µg/mL (≈ 18.7 µM)	25 µg/mL (≈ 58.3 µM)	15 µg/mL (≈ 35 µM)	< 50 µg/mL	0.5 µg/mL (≈ 1.17 µM)	< 75 µg/mL	3 µg/mL (≈ 6.99 µM)	–
CC(=O)O[C@H]1CC(=O)OC2CC(CC/C(Cl)=C/C/C=C\1C)O[C@H]2[C@H](O)/C=C(\C)CC(=O)O (some centres unmarked) [Haterumalide A]	ability to inhibit	ability to inhibit	ability to inhibit	2 µg/mL (≈ 4.25 µM)	0.4 µg/mL (≈ 0.849 µM)	0.8 µg/mL (≈ 1.7 µM)	5 µg/mL (≈ 10.6 µM)	35 µg/mL (≈ 74.3 µM)	–	15 µg/mL (≈ 31.9 µM)	0.8 µg/mL (≈ 1.7 µM)	mycelial growth of retrieved sclerotia on PDA plates ([5]; sclerotia treated with 10 μg ml^−1): no mycelial growth; apothecial formation of retrieved sclerotia on moistened filter paper ([5]; sclerotia treated with 0.5 and 1 μg ml^−1): produced apothecia; mycelial growth of retrieved sclerotia on PDA plates ([5]; sclerotia treated with 3 and 5 μg ml^−1): produced mycelium; carpogenic germination of retrieved sclerotia ([5]; sclerotia treated with 3 to 10 μg ml^−1): total inhibition; activity against three classes of fungi other than Oomycetes [6]: little or no activity; inhibition of mycelial growth of S. sclerotiorum (S. sclerotiorum mycelium; 0.05 to 0.1 μg ml^−1 per disc, 4 days): did not inhibit
